Laboratory results: US20230061456A1, “METHODS AND COMPOSITIONS FOR GENERATING TYPE 1 VESTIBULAR HAIR CELLS” (Decibel Therapeutics, Inc., priority 2020, published 2023)

What was measured:
[1] = tested on: hair cells of embryonic utricles from E15.5 CD1 mice; experiment: scRNAseq of cultured embryonic utricles with vitamin A; type: cell-based, mouse; details: E15.5 CD1 utricles; 0.1 μM; 4 days in culture
Experimental: To evaluate the potential for this pathway to modulate type I hair cell fate, we dissected and cultured embryonic utricles from E15.5 CD1 mice in the presence or absence of 0.1 μM vitamin A (retinoic acid precursor). After 4 days in culture the cells were dissociated, and single cells were captured for scRNAseq. Downstream analysis of the scRNAseq data was performed and representative transcripts used to define type I hair cells (Kcna10 and Lpgat1) and type II hair cells (Mgst3 and DIk2) were selected from the data.

[2] = tested on: SPP1 (a Type I HC marker) positive cells in cultured utricles; experiment: SPP1 induction by vitamin A in cultured embryonic and adult utricles; type: cell-based, mouse; details: 0.1 μM
Experimental: To further explore these differences of the effect of the retinoic acid pathway on embryonic and adult hair cells, we compared the effects of 0.1 μM vitamin A on cultured utricles from embryonic and adult animals.

vitamin A
expression of transcripts typically associated with type I hair cells (Kcna10, Lpgat1) [1]: increased expression
expression of transcripts typically associated with type II hair cells (Mgst3, Dlk2) [1]: decreased expression
number of SPP1-positive cells, embryonic tissue [2]: dramatically increased
